Columns and labels:
[1] = Physical stability of crystalline embodiments of compound Ex. 1 (polymorph screening, HT-XRPD); format: physicochemical; conditions: for physical stability after exposure to AAC: accelerated aging conditions, 40° C./70% RH, two days
Procedure: Long term slurry experiments were performed by suspending compound embodiment 1s in twenty neat solvents and stirred at room temperature for two weeks and at 50° C. for one week. Upon completion of the equilibration time, the residual solids were separated from the mother liquors. The solids were dried under ambient conditions and dried under vacuum (5 mBar) before being analyzed by HT-XRPD. Subsequently, the solids were exposed to accelerated aging conditions (40° C./70% relative humidity) for two days and again analyzed by HT-XRPD.
Embodiment is converted to hydrated embodiment 10 when it was exposed to 100% RH at 25° C. […] This behavior is attributable to an unequally strong binding of all the hydration/solvation molecules. In this case, embodiment 10 would have a less strongly bound second water molecule that would be lost under ambient conditions. More precisely, the physical stability of embodiment is was investigated in climate chambers by exposing a 20 mg sample of such embodiment to 40° C. and 70% relative humidity for four days, and another 20 mg sample of the same embodiment was exposed also for four days to 25° C. and 100% relative humidity. After four days, the various solid samples were analyzed by HR-XRPD, the crystal cell parameters were determined and the diffractograms were indexed. From bottom to top, the first diffractogram in FIG. 6 corresponds to embodiment is as starting material, and the second corresponds to the same form after a 4-day exposure to 40° C. and 70% relative humidity, noted as “1s 70 RH” in the same figure. […] Indexing for such form was not possible due to the small amount in which it was present. The third diffractogram corresponds to embodiment is after a 4-day exposure to 25° C. and 100% relative humidity, noted as “10” in the same figure. […] Upon dehydration, both embodiments 1s and 10 re-crystallized to the anhydrous form with a melting point of 148° C.
The mother liquors of the solvent equilibration experiments performed at 50° C. were filtered at 50° C. to remove any particulate matter. […] When solids had precipitated during aging these solids were separated from the liquid, dried under ambient conditions and under vacuum, and analyzed by HT-XRPD. The remaining mother liquors were allowed to slowly evaporate and the remaining solids were analyzed by HT-XRPD. The samples in which no precipitation occurred were placed under vacuum and the dried solids were analyzed by HT-XRPD. All the solids were then exposed to AAC (2 days at 40° C./70% RH) and re-analyzed by HT-XRPD.
The cooling/evaporative crystallization experiments at L scale were performed in a 96-well plate, using 12 neat solvents and 12 solvent mixtures and applying four temperature profiles. […] Upon completion of the temperature profile the solvents were allowed to evaporate at low ambient pressure (24 hours) and the remaining solids were analyzed by HT-XRPD before and after exposure to AAC for 2 days (40° C./70% RH).
The cooling crystallization experiments with hot filtration were performed from supersaturated solutions of compound Ex. 1 prepared at 50° C. in different solvent mixtures. […] The vials in which solids had precipitated after the temperature profile were centrifuged and the solids were separated from the liquid and analyzed by HT-XRPD (after drying under vacuum). If no solids had precipitated the solutions were evaporated under vacuum and the solids analyzed by HT-XRPD. […]

MDCK-MDR1 cell line = test: MDCK-MDR1 permeability assay; format: in vitro ADME; conditions: apical-to-basolateral, with P-gp inhibitor elacridar (2 μM), 5 μM, 60 min
Procedure: Permeability measurements were conducted according to the Cyprotex protocol using the MDCK-MDR1 cell line obtained from the NIH (Rockville, Md., USA). […] The cells in this assay form a cohesive sheet of a single cell layer filing the surface area of the culture dish, also known as a confluent monolayer, and on day four the test compound was added to the apical side of the membrane and the transport of the compound across the monolayer was monitored over a time period of 60 min.
Test compounds were dissolved in DMSO at a concentration of 10 mM. The dosing solutions were prepared by diluting test compound with assay buffer (Hanks Balanced Salt Solution), pH 7.4, at a final concentration of 5 μM. For assessment of apical to basolateral (“A-B”) permeability, buffer was removed from the apical compartment and replaced with test compound dosing solution with or without the permeability glycoprotein (“PgP”, “P-gP”, “Pgp” or “P-gp”) inhibitor elacridar (2 μM). For assessment of basolateral to apical (“B-A”) permeability, buffer was removed from the companion plate and replaced with test compound dosing solution. Incubations were carried out in duplicate at 37° C. in an atmosphere of 5% CO2 with a relative humidity of 95%. Each assay included the reference markers propranolol (high permeability) and prazosin (PgP substrate). After incubation for 60 minutes, apical and basolateral samples were diluted and test compounds quantified by LC/MS/MS using an 8-point calibration in the range 0.0039 to 3 μM with appropriate dilution of the samples (receiver dilution factor=1; donor and Co dilution factor=10). The permeability coefficient (Papp) for each compound was calculated from the following equation: Papp=(dQ/dt)/(C0×S), where dQ/dt is the rate of permeation of the drug across the cells, C0 is the donor compartment concentration at time zero, and S is the area of the cell monolayer.
Papp(A-B) gives an indication of permeation extent across the cells in this assay, which is envisaged to model the transcellular transport across Pgp-expressing cells, such as Pgp-expressing gastrointestinal tract cells.

moderate to severe CD = conditions: 4 week/Phase 2 clinical trial; cited from earlier work

SMILES	physical stability after exposure to AAC [1]	further results
CC(C)(O)CNC(=O)Cc1nc2cnc3[nH]ccc3c2n1[C@H]1CC[C@H](CC#N)CC1 [Embodiment 2]	converted to embodiment 3e	–
CC(C)(O)CNC(=O)Cc1nc2cnc3[nH]ccc3c2n1[C@H]1CC[C@H](CC#N)CC1 [Embodiment 5]	physically unstable	–
CC(C)(O)CNC(=O)Cc1nc2cnc3[nH]ccc3c2n1[C@H]1CC[C@H](CC#N)CC1 [Embodiment 10]	–	physical stability under ambient conditions ([1]; ambient conditions): limited physical stability
N#CC[C@H]1CC[C@H](n2c(CC(=O)NC3CCOCC3)nc3cnc4[nH]ccc4c32)CC1 [Ex. 5, 2-(1-((1r,4r)-4-(Cyanomethyl)cyclohexyl)-1,6-dihydroimidazo[4,5-d]pyrrolo[2,3-b]pyridin-2-yl)-N-(tetrahydro-2H-pyran-4-yl)acetamide]	–	MDCK-MDR1 P^eapp(A-B) @ 5 (μM) (MDCK-MDR1 cell line): 0.5 10^−6 cm/sec
C[C@@H]1CCN(C(=O)CC#N)C[C@@H]1N(C)c1ncnc2[nH]ccc12 [tofacitinib]	–	clinical efficacy in Crohn's disease (moderate to severe CD): failure to achieve clinical efficacy

More lines, main results first:

physical stability after exposure to AAC [1]	SMILES	further results
stable solid form	CC(C)(O)CNC(=O)Cc1nc2cnc3[nH]ccc3c2n1[C@H]1CC[C@H](CC#N)CC1 [Embodiment 6]	–
physically stable	CC(C)(O)CNC(=O)Cc1nc2cnc3[nH]ccc3c2n1[C@H]1CC[C@H](CC#N)CC1 [Embodiment 7]	–
